Blank lines part the entries; values can stand above or below the compound they belong to. K(Dye2) = not defined here; K(tet) = not defined here; code O = not defined here; C17 = C17 chain
How the values were obtained:
[1] = cited from earlier work; for Monera et al. Hydrophobicity at pH 7: normalized, phenylalanine 100, glycine 0
[2] = cited from earlier work
PKCβII [3] = target: T1, PKCβII (Homo sapiens, UniProt P05771); experiment: Inhibition of PKCβII in real-time micelle kinase assay; type: biochemical; conditions: FIGS. 5A-B, IC50 only in figures
T1 construct: purchased Upstate USA, Inc
Method: A reaction solution (10 μl) was prepared containing the hydrophobic molecule C16OOOK(Dye2)EEIYGEF-amide (10 μM), and 10 μM charge-balance molecule Myelin Basic Protein (Upstate USA, Inc. cat. no: 13-104), in 20 mM Tris buffer, pH 7.6, MgCl2 (5 mM), DTT (5 mM), 10% Lipid Activator (Upstate USA, Inc), and PKCβII (0.15 ng/μl, Upstate USA, Inc.). The solution was pipetted into wells of a 384-well plate (10 μL per well), Corning 384-well, black, non-binding surface (NBS), microwell plates. […] ATP (10 μM) was added to initiate the kinase reaction. Fluorescence was read in real-time every 2 minutes for 2 hours, at ambient temperature, using, Molecular Devices (Sunnyvale, Calif.) Analyst GT, with excitation and emission set at 485 and 535 nm respectively.

MAP kinase1/Erk1 = target: T2, MAP kinase1/Erk1 (Homo sapiens, UniProt P27361); experiment: Real-time kinase assay with hydrophobic molecule and myelin basic protein micelle; type: biochemical; conditions: FIG. 3B
T2 construct: purchased Upstate USA, Inc
Method: (§1) The compositions described herein are useful in the detection of enzymes. Real-time kinase assays for PKCβII, MAP kinase1/Erk1, and MAP kinase2/Erk2 using the hydrophobic molecule, C16OOOK(Dye 2)EEIYGEF-amide and charge-balance molecule, myelin basic protein with 0 or 100 μM ATP, are shown in FIGS. 3A-C.
(§2) A reaction solution (10 μl) was prepared containing the hydrophobic molecule C16OOOK(Dye2)EEIYGEF-amide (10 μM), and 10 μM charge-balance molecule Myelin Basic Protein (Upstate cat. no: 13-104), in 20 mM Tris buffer, pH 7.6, MgCl2 (5 mM), DTT (5 mM) and either PKCβII (0.15 ng/μl, Upstate USA, Inc.), MAP kinase1/Erk1 (1.5 ng/μl, Upstate USA, Inc.), or MAP kinase2/Erk2 (1.5 ng/μl, Upstate USA, Inc.). The solution was pipetted into wells of a 384-well plate (10 μL per well), Corning 384-well, black, non-binding surface (NBS), microwell plates. ATP (0 or 500 μM) was added to initiate the kinase reaction. Fluorescence was read in real-time every 2 minutes for 2 hours, at ambient temperature, using, Molecular Devices (Sunnyvale, Calif.) Analyst GT, with excitation and emission set at 485 and 535 nm respectively.

MAP kinase2/Erk2 = target: T3, MAP kinase2/Erk2 (Homo sapiens, UniProt P28482); experiment: as above; type: biochemical; conditions: FIG. 3C
T3 construct: purchased Upstate USA, Inc
Method: as §1, §2

PKCβII [4] = target: T1, PKCβII; experiment: as above; type: biochemical; conditions: FIG. 3A
Method: as §1, §2

[5] = Freeze fracture electron microscopy of micelles; type: physicochemical; conditions: 25 mM Tris pH 7.6; for micelle form seen in electron micrograph: FIGS. 1A-B
From the text: Micelle formation can be detected in a variety of ways, including fluorescence titration of the molecules in detergent, and dynamic laser light scattering. Additionally, direct visual evidence of micelle formation, and micelle disruption by adding a charged group, can be obtained by freeze fracturing electron microscopy. For example, FIG. 1A is an electron micrograph of micelles comprising the hydrophobic molecule, C17OOOK(tet)RQGSFRA-amide. […] “Tet” is a fluorescent moiety provided by 2′,7′,4,7-tetachloro-5-carboxy fluorescein (2′,7-dichloro-5-carboxy-4,7-dichlorofluorescein). OOO represents optional O-spacers comprising (bis)ethylene glycol group(s). […] FIG. 1B is an electron micrograph of micelles comprising a phosphorylated hydrophobic molecule, C17OOOK(tet)RQGS(p)FRA-amide. […] Thus, the addition of two negative charges to the hydrophobic molecule, results in micelle disruption and deaggregation.
For freeze fracture electron microscopy, the hydrophobic molecule, C17OOO K(tet)RQGSFRA-amide phosphorylated hydrophobic molecule C17OOOK (tet)RQGS(p)FRA-amide were each dissolved in 25 mM Tris (pH 7.6), 5 mM MgCl and 5 mM DTT. The samples were frozen in liquid nitrogen-cooled propane. […] The fracturing process was carried out in a JEOL JED-9000 freeze-etching machine and the exposed fractured planes were shadowed with Pt for thirty seconds at an angle of 25-35 C and with carbon for 35 seconds (2 kV/60-70 mA, 1×10^−5 Torr). The replicas produced were cleaned with concentrated chloroform/methanol (1:1 by volume) at least five times. The cleaned replicas were examined with a JEOL 1000CX or Philips CM 10 electron microscope.

T1 sequence (P05771 1-673 isoform P05771-2): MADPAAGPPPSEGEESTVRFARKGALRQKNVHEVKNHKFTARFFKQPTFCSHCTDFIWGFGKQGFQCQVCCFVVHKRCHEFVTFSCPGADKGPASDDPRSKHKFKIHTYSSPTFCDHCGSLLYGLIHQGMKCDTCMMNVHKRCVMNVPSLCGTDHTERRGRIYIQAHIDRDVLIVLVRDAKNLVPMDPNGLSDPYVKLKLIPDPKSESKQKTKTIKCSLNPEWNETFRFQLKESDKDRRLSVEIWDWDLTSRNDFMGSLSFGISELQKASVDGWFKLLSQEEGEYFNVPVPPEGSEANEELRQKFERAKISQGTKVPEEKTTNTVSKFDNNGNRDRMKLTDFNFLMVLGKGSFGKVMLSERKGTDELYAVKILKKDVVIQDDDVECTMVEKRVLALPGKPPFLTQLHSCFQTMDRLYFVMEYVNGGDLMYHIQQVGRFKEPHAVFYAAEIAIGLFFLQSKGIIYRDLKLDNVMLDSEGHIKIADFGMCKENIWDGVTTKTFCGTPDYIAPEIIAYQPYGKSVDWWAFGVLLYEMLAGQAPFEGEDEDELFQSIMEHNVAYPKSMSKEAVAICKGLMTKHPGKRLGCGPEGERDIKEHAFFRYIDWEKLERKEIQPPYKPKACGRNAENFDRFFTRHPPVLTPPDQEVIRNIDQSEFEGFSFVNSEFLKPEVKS
T3 sequence (P28482 whole entry): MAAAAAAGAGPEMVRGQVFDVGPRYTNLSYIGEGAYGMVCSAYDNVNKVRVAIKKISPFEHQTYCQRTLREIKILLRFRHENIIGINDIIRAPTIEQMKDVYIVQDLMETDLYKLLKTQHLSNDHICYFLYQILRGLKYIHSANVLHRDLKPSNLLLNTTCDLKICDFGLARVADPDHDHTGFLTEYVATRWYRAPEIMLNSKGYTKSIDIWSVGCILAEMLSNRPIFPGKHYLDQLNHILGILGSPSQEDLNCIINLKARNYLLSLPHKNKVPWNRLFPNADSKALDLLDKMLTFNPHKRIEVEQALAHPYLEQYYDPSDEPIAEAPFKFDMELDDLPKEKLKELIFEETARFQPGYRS
T2 sequence (P27361 whole entry): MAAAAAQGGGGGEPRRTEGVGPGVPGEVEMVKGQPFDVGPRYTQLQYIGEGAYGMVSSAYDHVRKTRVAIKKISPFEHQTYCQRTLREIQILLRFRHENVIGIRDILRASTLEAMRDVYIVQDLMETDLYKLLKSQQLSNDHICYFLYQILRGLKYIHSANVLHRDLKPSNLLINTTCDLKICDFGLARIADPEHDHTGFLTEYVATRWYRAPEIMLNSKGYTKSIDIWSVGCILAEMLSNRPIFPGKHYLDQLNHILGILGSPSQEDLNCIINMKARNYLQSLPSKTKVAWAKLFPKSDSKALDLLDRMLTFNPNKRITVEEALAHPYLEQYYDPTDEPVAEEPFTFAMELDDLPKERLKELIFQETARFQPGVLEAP

Compound: C[C@H](N)C(=O)O [Alanine (A), Alanine]
Monera et al. Hydrophobicity at pH 7 [1]: 41 | α-COOH pKa [2]: 2.4

Compound: N=C(N)NCCC[C@H](N)C(=O)O [Arginine (R), Arginine]
α-COOH pKa [2]: 2.2

Compound: NC(=O)C[C@H](N)C(=O)O [Asparagine (N), Asparagine]
Monera et al. Hydrophobicity at pH 7 [1]: −28 | α-COOH pKa [2]: 2.0 | α-NH3+ pKa [2]: 8.8

Compound: N[C@@H](CS)C(=O)O [Cysteine (C), Cysteine]
Monera et al. Hydrophobicity at pH 7 [1]: 49 | Side chain pKa [2]: about 8

effect of increasing concentrations of enzyme inhibitor on fluorescence (PKCβII [3]): decrease in fluorescence
Compound: O=S(=O)(NCCNC/C=C/c1ccc(Br)cc1)c1cccc2cnccc12 [H98, H89]

Compound: N[C@@H](Cc1c[nH]cn1)C(=O)O [Histidine (H), Histidine]
Monera et al. Hydrophobicity at pH 7 [1]: 8

Compound: CC[C@H](C)[C@H](N)C(=O)O [Isoleucine (I), Isoleucine]
Monera et al. Hydrophobicity at pH 7 [1]: 99 | α-COOH pKa [2]: 2.4 | α-NH3+ pKa [2]: 9.7

Compound: NCCCC[C@H](N)C(=O)O [Lysine (K), Lysine]
Monera et al. Hydrophobicity at pH 7 [1]: −23 | α-NH3+ pKa [2]: 9.0

Compound: CSCC[C@H](N)C(=O)O [Methionine (M), Methionine]
Monera et al. Hydrophobicity at pH 7 [1]: 74 | α-COOH pKa [2]: 2.3 | α-NH3+ pKa [2]: 9.2

Compound: N[C@@H](Cc1ccccc1)C(=O)O [Phenylalanine (F), Phenylalanine]
Monera et al. Hydrophobicity at pH 7 [1]: 100

Compound: O=C(O)[C@@H]1CCCN1 [Proline (P), Proline]
Monera et al. Hydrophobicity ([1]; pH 2): −46 (pH 2) | α-COOH pKa [2]: 2.1

Compound: N[C@@H](CO)C(=O)O [Serine (S), Serine]
Monera et al. Hydrophobicity at pH 7 [1]: −5 | Side chain pKa [2]: ~13 | α-NH3+ pKa [2]: 9.2

Compound: C[C@@H](O)[C@H](N)C(=O)O [Threonine (T), Threonine]
Side chain pKa [2]: ~13 | α-COOH pKa [2]: 2.6 | α-NH3+ pKa [2]: 10.4

Compound: N[C@@H](Cc1c[nH]c2ccccc12)C(=O)O [Tryptophan (W), Tryptophan]
Monera et al. Hydrophobicity at pH 7 [1]: 97 | α-COOH pKa [2]: 2.4

Compound: N[C@@H](Cc1ccc(O)cc1)C(=O)O [Tyrosine (Y), Tyrosine]
Monera et al. Hydrophobicity at pH 7 [1]: 63

Compound: CC(C)[C@H](N)C(=O)O [Valine (V), Valine]
Monera et al. Hydrophobicity at pH 7 [1]: 76

Compound: C16OOOK(Dye2)EEIYGEF-amide ({C16-code O-code O-code O-K(Dye2)}-EEIYGEF-NH2; reading uncertain; also: printed as C16OOOK(Dye2)EEIYGEF-amide) [C16OOOK(Dye 2)EEIYGEF-amide, hydrophobic molecule: C16 carbon chain, O-spacers, lysine-linked 5-carboxy-2′,7′-dipyridyl-sulfonefluorescein, peptide EEIYGEF-amide]
increase in fluorescence over time on addition of enzyme (MAP kinase1/Erk1): greater than 4 fold | increase in fluorescence over time on addition of enzyme (MAP kinase2/Erk2): greater than 4 fold | increase in fluorescence over time on addition of enzyme (PKCβII [4]): greater than 4 fold

Compound: C17OOOK(tet)RQGS(p)FRA-amide
micelle form seen in electron micrograph [5]: only form small spheres and small clusters of spheres

Compound: C17OOOK(tet)RQGSFRA-amide ({C17-code O-code O-code O-K(tet)}-RQGSFRA-NH2; reading uncertain; also: printed as C17OOOK(tet)RQGSFRA-amide) [hydrophobic molecule: C17 carbon chain, O-spacers, lysine-linked tet fluorescein dye, peptide RQGSFRA-amide]
micelle form seen in electron micrograph [5]: cylindrical or tubular micelles | diameter of cylindrical or tubular micelles ([5]; electron micrograph FIG. 1A): 20-60 nm | length of cylindrical or tubular micelles ([5]; electron micrograph FIG. 1A): 200-1000 nm

— patent US20090081704A1, “COMPOSITIONS, METHODS AND KITS FOR REAL-TIME ENZYME ASSAYS USING CHARGED MOLECULES” (priority 2004, published 2009)
